From patent US20100323990A1, “SHIP 1 MODULATOR PRODRUGS” (THE UNIVERSITY OF BRITISH COLUMBIA, priority 2006, published 2010) come the findings set out here.

One test relates to SHIP enzyme. As to the kind of experiment: In vitro SHIP enzyme assay (Assay 1), phosphate release by Malachite Green. As to Assay 1: SHIP enzyme assay, desired activity: key: a ‘+’ indicates a positive result for desired activity; a ‘−’ indicates a negative result for desired activity. It is filed as biochemical.
For another test, the system named is J774.1a macrophage cells. Nature of the test: Macrophage TNF-α production (Assay 2). Also: key: a ‘+’ indicates a positive result for desired activity; a ‘−’ indicates a negative result for desired activity. It is filed as cell-based. As to conditions: 10 μg/mL test compound, 100 ng/mL LPS, supernatants after 2 hr and 5 hr. In a few lines:
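J774.1a macrophages pretreated 40 min with 10 μg/mL compound, then LPS (100 ng/mL for TNF-α); TNF-α by ELISA in supernatants at 2 and 5 h, NO by Griess at 24 h. Mast cells IgE-loaded (anti-DNP), compound 30 min, DNP-HSA challenge; calcium flux by fura-2 spectrofluorometry, signalling by immunoblot.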

For test [1], the system named is CD1 mice sensitized to the hapten DNP. Nature of the test: Mouse acute cutaneous anaphylaxis model (Assay 5). It is filed as in vivo. The following applies: for Assay 5: Mouse acute cutaneous anaphylaxis model, desired activity: topical on ear, DNFB challenge, MPO activity.
The next test relates to plasma TNFα. Nature of the test: Mouse endotoxemia model (Assay 6), plasma TNFα by ELISA. The class given is in vivo, mice. The following applies: for Assay 6: Mouse endotoxemia model, desired activity: oral, 30 min prior to IP 2 mg/kg LPS, plasma TNFα 2 hrs later. As to the method:
Assay 1) In vitro testing in a SHIP enzyme assay. Test compounds were dissolved in a suitable solvent (e.g. EtOH, DMSO and others) and diluted into aqueous buffer (20 mM Tris HCl, pH 7.5 and 10 mM MgCl2). SHIP enzyme assays were performed in 96-well microtitre plates with 10 ng of enzyme/well in a total volume of 25 μL of 20 mM Tris HCl, pH 7.5 and 10 mM MgCl2. SHIP enzyme was incubated with test extracts (provided in solvent) or vehicle for 15 min at 23° C. before the addition of 100 μM inositol-1,3,4,5-tetrakisphosphate (Echelon Biosciences Inc, Salt Lake City, Utah). After 20 min at 37° C. and the amount of inorganic phosphate released assessed by the addition of Malachite Green reagent and absorbance measurement at 650 nm. Assay 2) Macrophage TNF-α production. J774.1a macrophage cells were treated with 10 μg/mL of test compound dissolved in solvent (e.g. cyclodextran) for 40 minutes prior to the addition of 100 ng/mL LPS. Culture supernatants were collected after 2 hr and 5 hr for TNF-α determination by ELISA. Assay 3) Macrophage TNF-α NO assay. J774.1a macrophage cells were treated with 10 μg/ml of test compound dissolved in solvent for 40 minutes prior to the addition of LPS. Culture supernatants were collected after 24 hr. for determination of NO concentration using the Griess reagent. Assay 4) Stimulation of mast cells by FcεRI crosslinking. Mast cells were pre-loaded overnight in BMMC medium lacking IL-3 with 0.1 μg/ml anti-DNP IgE (SPE-7, Sigma, Oakville, Ont). For calcium flux measurements, cells were incubated with 2 μM fura 2-acetoxymethyl ester (Molecular Probes, Eugene, Oreg.) in Tyrode's buffer at 23° C. for 45 min. Cells were then washed and incubated in the presence of the test compound 30 min prior to stimulation with the indicated concentration of DNP-human serum albumin (DNP-HSA). Calcium influx was monitored by spectrofluorometry as described previously. For analysis of intracellular signaling, cells were pre-loaded with anti-DNP IgE as above, pre-treated with the test compound for 30 min at 37° C. and stimulated with 20 ng/ml DNP-HSA for 5 min. Total cell lysates were then prepared and analyzed for phospho-PKB, phospho-p38^MAPK, phospho-MAPK, Grb-2 (Cell Signalling, Mississauga, Ont) and SHIP^6 by immunoblot analysis. Assay 5) Mouse acute cutaneous anaphylaxis model. 6-8 week old CD1 mice (University of British Columbia Animal Facility, Vancouver, BC) were sensitized to the hapten DNP by cutaneous application of 25 μL of 0.5% dinitrofluorobenzene (DNFB) (Sigma, Oakville, Ont) in acetone to the shaved abdomen of mice for two consecutive days. 24 hrs later, test substances (dissolved in 10 μL of 1:2 DMSO:MeOH) were painted on the right ear while the left ear received vehicle control. 30 min after drug application, DNFB was applied to both ears to induce mast cell degranulation. A 6 mm punch was taken from the ear and immediately frozen on dry ice for subsequent determination of neutrophil myeloperoxidase (MPO) activity. Assay 6) Mouse endotoxemia model. […] The ability of SHIP activators to reduce tumor cell survival was assessed in MM cell lines treated with the test compound. The lines OPM1, OPM2, MM.1S and RPMI 8226 were plated at a density of 1×10^5 cells/mL in 200 μL of medium with various concentrations of the test compound, and viable cell numbers were determined on day 3 and day 5 by trypan blue exclusion. […]

Test [2] concerns luciferase expressing OPM2 cells. As to the kind of experiment: In vivo Multiple Myeloma (MM) assay (Assay 8), OPM2 xenograft. Also on record: species or system mice. As to conditions: 50 mg/kg every 3 days, subcutaneous oil depot. As to the method: Assay 8) In vivo Multiple Myeloma (MM) assay. Mice were inoculated with at two sites each with 3×10^6 luciferase expressing OPM2 cells suspended in 50 μL of growth medium and 50 μL of Matrigel basement membrane matrix (Becton Dickenson; Bedford, Mass.). Tumors were injected subcutaneously in the upper and lower flanks of the mice and allowed to establish for 2 weeks. After 2 weeks, a test compound or control vehicle was administered in a subcutaneous oil depot at a dose of 50 mg/kg every 3 days.
Tumors were measured using bioluminescence imaging on the Xenogen IVIS 200. Mice received intra-peritoneal injections of 200 μL of D-luciferin at 3.75 mg/mL in sterile PBS. Mice were then anesthetized with isofluorane and imaged 15 minutes post-injection of luciferin. Quantification of tumor size was performed using the Living Image™ software.
MM Xenograft murine model. Mice were inoculated with at two sites each with 3×10^6 luciferase expresseing OPM2 cells suspended in 50 μL of growth medium and 50 μL of Matrigel basement membrane matrix (Becton Dickenson; Bedford, Mass.). Tumors were injected subcutaneously in the upper and lower flanks of the mice and allowed to establish for 2 weeks. […]
Tumors were measured using bioluminescence imaging on the Xenogen IVIS 200. […] Quantification of tumor size was performed using the Living Image™ software. […]

A further test relates to LNCaP cells. Nature of the test: PKB activation in LNCaP cells, which do not express SHIP. The class given is cell-based, human. As to conditions: AQX-016A at doses up to 60 μM. As to the method:
The ability of AQX-016A to inhibit activation of PIP3-dependent downstream signalling proteins in SHIP^+/+ vs SHIP^−/− was assessed. LPS stimulation of macrophages results in PKB phosphorylation. […] Similar protein loading was confirmed by reblotting with either antibodies to PKB or Grb2. […] Thus, AQX-016A inhibits PIP3-regulated intracellular signal transduction events in SHIP expressing hematopoietic cells, but not in SHIP-deficient hematopoietic or non-hematopoietic cells.

SMILES strings stand for the structures.

With `Cc1cc(O)cc2c1[C@]1(C)CCC3C(C)(C)CCC[C@]3(C)[C@H]1C2` (stereo partly shown) [Compound 100], the “SHIP enzyme activity in vitro” value in the test on SHIP enzyme is on record as “enhanced SHIP enzyme activity in vitro”. Besides, the “Assay 1: SHIP enzyme assay, desired activity” value in the test on SHIP enzyme (10 ng enzyme/well, 100 μM inositol-1,3,4,5-tetrakisphosphate) was “+”. For the same molecule, in the test with J774.1a macrophage cells, the “Assay 2: Macrophage TNF-α production, desired activity” value is listed as “+”. Besides, the “Assay 5: Mouse acute cutaneous anaphylaxis model, desired activity” value in test [1] is listed as “+”. In addition, in test [1] (topically applied, vs vehicle control-treated ear), the “allergen (DNFB)-induced inflammation of the ear” value was “dramatically inhibited allergen-induced inflammation”. Also, the “LPS-induced plasma/serum TNFα levels” value in the test with plasma TNFα (oral administration 30 min prior to LPS) is given as “efficiently inhibited”. The “Assay 6: Mouse endotoxemia model, desired activity” value in the test with plasma TNFα is “+”. In addition, in test [2], the “Assay 8: In vivo Multiple Myeloma (MM) assay, desired activity” value is listed as “+”.
In the case of `Cc1cc(O)c(O)c2c1[C@]1(C)CCC3C(C)(C)CCC[C@]3(C)[C@H]1C2` (stereo partly shown) [AQX-016A], in the test with J774.1a macrophage cells, the “Assay 2: Macrophage TNF-α production, desired activity” value is recorded as “+”. Moreover, the “Assay 5: Mouse acute cutaneous anaphylaxis model, desired activity” value in test [1] is “+”. Further, the “Assay 6: Mouse endotoxemia model, desired activity” value with plasma TNFα is “+”. Further, in test [2], the “Assay 8: In vivo Multiple Myeloma (MM) assay, desired activity” value was “+”. Further, the “PKB phosphorylation in LNCaP cells” value in the test with LNCaP cells is reported as “no effect”.
